Results published in patent US20260041690A1, “Treatment of Memory Loss with Phosphodiesterase Inhibitors” (Cyrano Therapeutics, Inc., priority 2023, published 2026).

Legend:
[1] = system: memory loss associated with sleep deprivation; experiment: Treatment of memory loss associated with sleep deprivation in a subject; format: in vivo; conditions: nasal spray, effective dose 3× daily in each naris
Excerpt: A subject is admitted to a clinic for a memory loss associated with sleep deprivation. The subject is prescribed a roflumilast composition in a nasal spray device described herein. The subject administers the nasal spray in an effective dose 3× daily in each naris. The nasal spray is characterized by a spray containing a D50 of about 15 μm to about 24 μm, a D90 of from about 30 μm to about […] and where less than about 3% of the droplets in the plume of a spray have a size of less than about 10 μm.

[2] = cited from earlier work

Row | Compound | memory retention after administration [1] | solubility of theophylline in ethanol ([2]; in ethanol) [mg/mL] | solubility of theophylline in water ([2]; in water) [mg/mL]
1 | O=C(Nc1c(Cl)cncc1Cl)c1ccc(OC(F)F)c(OCC2CC2)c1 [roflumilast] | improved memory retention | – | –
2 | Cn1c(=O)c2[nH]cnc2n(C)c1=O [theophylline] | – | 14 to 15 | 7 to 8
